Results on 13 compounds are retold here after patent US9505730B2, “Mineralocorticoid receptor antagonists” (Merck Sharp & Dohme Corp., priority 2011, dated 2016).

pIC50: −log10 of the molar value.

In this experiment the target is T1, full-length human Mineralocorticoid Receptor (MR) (Homo sapiens, UniProt P08235).
T1 construct: host or cells: PathHunter CHO-K1 cells
T1 sequence (P08235 1-984): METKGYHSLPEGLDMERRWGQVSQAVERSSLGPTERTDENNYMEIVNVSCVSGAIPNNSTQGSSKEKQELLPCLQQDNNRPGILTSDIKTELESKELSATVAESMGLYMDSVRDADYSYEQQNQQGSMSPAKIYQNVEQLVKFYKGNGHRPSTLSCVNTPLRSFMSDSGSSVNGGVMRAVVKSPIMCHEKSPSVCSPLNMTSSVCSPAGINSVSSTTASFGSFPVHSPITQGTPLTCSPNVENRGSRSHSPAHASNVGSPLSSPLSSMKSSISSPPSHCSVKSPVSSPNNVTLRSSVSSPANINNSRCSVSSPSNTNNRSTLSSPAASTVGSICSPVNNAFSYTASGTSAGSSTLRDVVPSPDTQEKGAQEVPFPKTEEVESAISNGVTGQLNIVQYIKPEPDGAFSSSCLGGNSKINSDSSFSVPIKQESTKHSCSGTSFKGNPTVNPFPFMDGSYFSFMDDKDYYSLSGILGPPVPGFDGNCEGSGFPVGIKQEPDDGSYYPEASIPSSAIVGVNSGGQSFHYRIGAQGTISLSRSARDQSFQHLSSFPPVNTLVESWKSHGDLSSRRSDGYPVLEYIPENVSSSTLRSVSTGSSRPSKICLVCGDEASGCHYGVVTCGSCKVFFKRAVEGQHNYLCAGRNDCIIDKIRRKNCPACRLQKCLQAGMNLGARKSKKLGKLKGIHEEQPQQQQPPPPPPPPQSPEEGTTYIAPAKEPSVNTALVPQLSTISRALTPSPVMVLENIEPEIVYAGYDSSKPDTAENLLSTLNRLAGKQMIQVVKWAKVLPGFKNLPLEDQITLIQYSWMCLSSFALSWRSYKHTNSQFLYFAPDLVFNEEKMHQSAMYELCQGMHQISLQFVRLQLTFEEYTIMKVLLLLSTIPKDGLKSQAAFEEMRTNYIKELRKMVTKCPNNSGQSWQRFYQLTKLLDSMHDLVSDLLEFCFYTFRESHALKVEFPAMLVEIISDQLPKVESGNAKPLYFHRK
The experiment can be described thus: human MR NH Pro assay (PathHunter Protein:Protein interaction assay, MR antagonism). Conditions: PathHunter CHO-K1 cells overexpressing human MR; aldosterone 0.3 nM; 6 hours at 37° C.; luminescence; read-out: IC50 rating. It is filed as cell-based. Here is the method:
The activity of the compounds of the present invention regarding mineralocorticoid receptor antagonism was evaluated using the following assay.
Assessment of Mr Potency in Hmr Nh Pro Assay
The human MR NH Pro assay is a commercially available PathHunter™ Protein: Protein interaction assay (DiscoveRx; http://www.discoverx.com/nhrs/prod-nhrs.php) that measures the ability of compounds to antagonize full-length human Mineralocorticoid Receptor (MR) binding to a coactivator peptide. PathHunter™ CHO-K1 cells that overexpress human MR (Cat #93-0456C2, Lot No: 09B0913) were cultured in growth media (F12K w/Glutamine and phenol red (Gibco 11765-047) supplemented with 10% HI FBS (Gibco 16000); 0.25 mg/ml Hygromycin in PBS (Invitrogen 10687-010, 50 mg/ml); 100 I.U./mL and 100 μg/mL Pen/Strep (Gibco 15140-122); 0.6 mg/mL Geneticin).
Compounds were assessed for MR antagonist activity by incubating the cells with a titrating dose of compound in F12K w/Glutamine and phenol red culture media (Invitrogen 11765-047) supplemented with 1% Charcoal/Dextran Treated FBS (Hyclone #SH30068.01) and aldosterone (0.3 nM) for 6 hours at 37° C.
• F12K w/Glutamine and phenol red (Gibco 11765-047) • 10% HI FBS (Gibco 16000) • 0.25 mg/ml Hygromycin in PBS (Invitrogen 10687-010, 50 mg/ml) • 100 I.U./mL and 100 μg/mL Pen/Strep (Gibco 15140-122) • 0.6 mg/mL Geneticin (Gibco 10131, 50 mg/ml) 2. Assay media: • F12K w/Glutamine and phenol red (Invitrogen 11765-047) • 1% Charcoal/Dextran Treated FBS (Hyclone #SH30068.01) 3. 3× PathHunter Detection Reagents (Cat#93-0001) (need ˜6 ml/plate). […] Control Agonist: Aldosterone: Sigma cat #A9477 • Prepare stock solution—10 μM in DMSO kept at −20 C • for assay, dilute in assay media to 1.8 or 6 nM (6× of final concentration=about 0.3 nM to about 1.0 nM) 5. Cell line: PathHunter CHO-K1 MR cells Cat #93-0456C2, Lot No: 09B0913, from operation liquid nitrogen stock. 6. Control Antagonist: Spironolactone: Sigma #S-3378 and Eplerenone Sigma #107724-20-9 (10 mM stock concentration also prepared in DMSO and stored at −20° C.). Methods: Assay Set up and Calculations: • 1. Cells were grown in F12+FBS+Hygromycin+pen/strep+Genetin. • 2. Cells were collected with 0.05% trypsin and the cell suspension was spun and resuspended in a volume of F12+1.5% CD-FBS and counted. • 3. The cells were resuspended to 4×10^5 cells/mL. • 4. Cells were (25 μL/well) added to the wells of a 384 well plate. • 5. The plate was then incubated at 37° C. over night in a humidified incubator with 5% CO2. • 6. Test compounds were titrated starting at 4.4 mM, 10-point titration in 1:3 dilution. • 7. Aldosterone was diluted in assay media to 1.8 nM or 6 nM from 10 μM stock (final concentration to be about 0.3 nM to about 1.0 nM). Protocol for 384 well plate format: 6 hr treatment: • 1. Plated 10K exponentially growing cells/well (25 μL) resuspended in assay media to each well using the Multidrop (Thermo Electron). Use white wall, clear bottom assay plates (Costar #3570) and incubate overnight at 37° C., 5% CO2. • 2. 0.25 μL 120× test compound (final DMSO concentration should be <1%) was added to each well n=2, 10 point titrations starting at 36.7 μM final concentration. • 3. 5 μL 6× agonist (final aldosterone concentration should be about 0.3 nM to about 1.0 nM) was added to all wells using the PlateMate Plus.
(ThermoFisher) (except those wells in columns 23 and 24) • 4. 5 μL of assay media was added to all wells in column 23 and 24. • 5. Plates were incubated 6 hrs at 37° C., 5% CO2. • 6. 15 μL 3× DiscoveRx detection reagent was added to each well. • 7. Plates were incubated for 1 hour at room temperature (plates stored in the dark). • 8. Plates were read on Envision (PerkinElmer) luminesence plate reader and analyzed using ADA. LC/MS method: (LC2M_Low/Med_Positive mode). LC Conditions: 5-98% CH3CN/H2O+v 0.1% TFA over 1.25 min; Flow Rate=1.5 mL/min, UV wavelength 254 nm; Column: Waters XTerra® MS C18 3.5 μm 2.1×20 mm IS™
The term pIC50 denotes −log10 of the IC50, conventionally taken in molar units. In the case of `C[C@H](c1ccccc1)N1C(=O)N[C@](Cc2ccccc2)(C(=O)N2CCc3ccccc3C2)C1=O` (single isomer, unassigned) [Compound 23], the pIC50 was 5.35 to 6.30.
As for `COc1cc(CNC(=O)[C@@]2(Cc3ccccc3)OC(=O)N([C@H](C)c3ccccc3)C2=O)cc(OC)c1` [Compound 1, (5R)-Benzyl-N-(3,5-dimethoxybenzyl)-2,4-dioxo-3-[(1R)-1-phenylethyl]-1,3-oxazolidine-5-carboxamide], the figure is greater than 7.00; as for `C[C@H](c1ccc(F)cc1)N1C(=O)O[C@](Cc2ccc(F)cc2)(C(=O)NCc2ccc(Cl)c(Cl)c2)C1=O` [Compound 2, (5R)-N-(3,4-Dichlorobenzyl)-5-(4-fluorobenzyl)-3-[(1R)-1-(4-fluorophenyl)ethyl]-2,4-dioxo-1,3-oxazolidine-5-carboxamide], 6.30 to 7.00; as for `COc1cc(CNC(=O)[C@@]2(Cc3ccc(F)cc3)OC(=O)N([C@H](C)c3ccccc3)C2=O)cc(OC)c1` [Compound 3, (5R)-N-(3,5-Dimethoxybenzyl)-5-(4-fluorobenzyl)-2,4-dioxo-3-[(1R)-1-phenylethyl]-1,3-oxazolidine-5-carboxamide], 6.30 to 7.00.
With `C[C@H](c1ccccc1)N1C(=O)O[C@](Cc2ccccc2)(C(=O)N[C@H]2C[C@H](c3ccccc3)C2)C1=O` [Compound 4, (5R)-5-Benzyl-2,4-dioxo-N-(trans-3-phenylcyclobutyl)-3-[(1R)-1-phenylethyl]-1,3-oxazolidine-5-carboxamide] the figure was 6.30 to 7.00; with `COc1cc(CNC(=O)C2(Cc3cccc(Cl)c3)OC(=O)N([C@H](C)c3ccccc3)C2=O)cc(OC)c1` (stereo partly drawn) [Compound 5, 5-(3-Chlorobenzyl)-N-(3,5-dimethoxybenzyl)-2,4-dioxo-3-[(1R)-1-phenylethyl]-1,3-oxazolidine-5-carboxamide], 5.35 to 6.30.
As for `COc1cc(CNC(=O)[C@@]2(Cc3ccccc3)OC(=O)N(C(C)C)C2=O)cc(OC)c1` [Compound 6, (5R)-5-Benzyl-N-(3,5-dimethoxybenzyl)-3-(1-methylethyl)-2,4-dioxo-1,3-oxazolidine-5-carboxamide], the figure is 6.30 to 7.00.
On to `COc1cc(CNC(=O)[C@@]2(Cc3ccccc3)OC(=O)N(C3CCCc4ccccc43)C2=O)cc(OC)c1` (stereo partly drawn) [Compound 7, (5R)-5-Benzyl-N-(3,5-dimethoxybenzyl)-2,4-dioxo-3-(1,2,3,4-tetrahydronaphthalen-1-yl)-1,3-oxazolidine-5-carboxamide], for which the pIC50 is 6.30 to 7.00.
As to `COc1cc(CNC(=O)[C@@]2(Cc3ccccc3)OC(=O)N([C@H](C)c3ccc(F)cc3)C2=O)cc(OC)c1` [Compound 8, (5R)-5-Benzyl-N-(3,5-dimethoxybenzyl)-3-[(1R)-1-(4-fluorophenyl)ethyl]-2,4-dioxo-1,3-oxazolidine-5-carboxamide], the pIC50 was greater than 7.00.
`COc1cc(CNC(=O)[C@@]2(Cc3ccccc3)OC(=O)N([C@H](C)c3ccc(Cl)cc3)C2=O)cc(OC)c1` [Compound 9, (5R)-5-Benzyl-3-[(1R)-1-(4-chlorophenyl)ethyl]-N-(3,5-dimethoxybenzyl)-2,4-dioxo-1,3-oxazolidine-5-carboxamide]: the pIC50 is greater than 7.00.
Turning to `COc1cc(CNC(=O)[C@@]2(Cc3ccccc3)OC(=O)N([C@H](C)C3CCCCC3)C2=O)cc(OC)c1` [Compound 10, (5R)-5-Benzyl-3-[(1R)-1-cyclohexylethyl]-N-(3,5-dimethoxybenzyl)-2,4-dioxo-1,3-oxazolidine-5-carboxamide], the pIC50 is greater than 7.00.
With `COc1cc(CNC(=O)[C@@]2(Cc3ccccc3)OC(=O)N([C@@H]3CCc4ccccc43)C2=O)cc(OC)c1` [Compound 11, (5R)-5-Benzyl-3-[(1R)-2,3-dihydro-1H-inden-1-yl]-N-(3,5-dimethoxybenzyl)-2,4-dioxo-1,3-oxazolidine-5-carboxamide], the negative logarithm of the IC50 (pIC50) was greater than 7.00.
`C[C@H](c1ccc(F)cc1)N1C(=O)O[C@](Cc2ccccc2)(C(=O)Nc2cccc(F)c2)C1=O` [Compound 13, (5R)-5-Benzyl-N-(3-fluorophenyl)-3-[(1R)-1-(4-fluorophenyl)ethyl]-2,4-dioxo-1,3-oxazolidine-5-carboxamide]: the pIC50 was 6.30 to 7.00.
